# Entries after “also recorded” stand apart in the source; their conditions may differ.
# Tests used:
# [1] = system: matrix metalloproteinase 3 (MMP3); test: MMP3 mRNA in NHDF, qRT-PCR; type: cell-based, human; conditions: IL-1β 0.1 ng/ml, 24 hours; 100 mM Lac, 0.1 mM Dxp
# Experimental: (§1) After 24 hours, total mRNA was isolated and delta-delta Cp relative expression was calculated versus untreated medium controls, normalized to the housekeeping gene, GAPDH. Statistical analysis was then conducted via t-test.
# [2] = system: matrix metalloproteinase 12 (MMP12); test: MMP12 mRNA in NHDF, qRT-PCR; type: cell-based, human; conditions: IL-1β 0.1 ng/ml, 24 hours; 100 mM Lac, 0.1 mM Dxp
# Experimental: as §1
# [3] = system: type II collagen (Col2a1); test: Col2a1 relative expression in osteoarthritic chondrocytes (qRT-PCR); type: cell-based, human
# RUNX2 = RUNX2 relative expression in osteoarthritic chondrocytes (qRT-PCR)
# Experimental: Examples of the present disclosure were conducted to evaluate the expression of key chondrocyte markers in the presence of test compounds. High passage and low passage chondrocytes were prepared where in both cases, primary human chondrocytes were cultured as confluent monolayers on tissue culture plates. For the high passage chondrocytes, fibroblast-like human osteoarthritic chondrocytes were used. The cells were cultured for an extended period before investigation (passage 13).
# When indicated, the cells were also cultured with TGF-β3 at a final concentration of 10 ng/ml.
# The data is presented as GAPDH normalized relative expression of key markers versus unstimulated controls.
# The culture mediums were replenished weekly by withdrawing about half of the volume and replacing them with warmed mediums supplemented as needed. After 27 days, total RNA was extracted and qRT-PCR was carried out with primer sets for SOX9, RUNX2, and GAPDH.
# Elastin (ELN) = test: ELN mRNA in normal human dermal fibroblasts (NHDF), qRT-PCR; type: cell-based; conditions: IL-1β 0.1 ng/ml, 24 hours; 100 mM Lac, 0.1 mM Dxp; n=3
# Experimental: as §1
# SOX9 versus RUNX2 = test: Relative expression of SOX9 versus RUNX2 in osteoarthritic chondrocytes; type: cell-based, human
# Aggrecan (ACAN) = test: ACAN relative expression in osteoarthritic chondrocytes (qRT-PCR); type: cell-based; conditions: passage 5 human osteoarthritic chondrocytes, 27 days
# Excerpt: Delta-delta relative gene expression was employed to determine ACAN regulation in the 27-day samples referenced in Examples 15 and 16.
# [4] = system: IL-1β-induced PGE2 release; test: IL-1β-induced PGE2 release from normal human chondrocytes (competitive EIA); type: cell-based
# SOX9 = SOX9 relative expression in osteoarthritic chondrocytes (qRT-PCR, normalized to GAPDH); type: cell-based, human
# type I collagen (Col1a1) = test: Col1a1 relative expression in osteoarthritic chondrocytes (qRT-PCR); type: cell-based; conditions: passage 5 human osteoarthritic chondrocytes, 27 days
# Experimental: To evaluate the biological ramifications of the SOX9 to RUNX2 regulation mentioned above, delta-delta relative gene expression was assessed against medium controls, with normalization to GAPDH for both Col2a1 and Col1a1 in the samples tested with reference to Example 15. […] Moreover, treatment with 100 mM Lac increased collagen expression (49.88+4.31 and 1.63+0.20 for Col2a1 and Col1a1, respectively; FIGS. 51 and 52).
# [5] = 100 millimolar Lac with 10 ng/mL TGF-B3, 14 days, micromass cultures
# [6] = 100 millimolar Lac, 14 days, monolayer cultures
# [7] = passage 5 human osteoarthritic chondrocytes, 27 days
# [8] = low passage osteoarthritic chondrocytes, 7, 14, 28 days
smiles,measurement,setting,value
"CC(O)C(=O)O (centres unmarked) [Lac, lactate]",relative expression of MMP3,[1],1.5 ± 0.8
same,relative expression of MMP12,[2],2.2 ± 0.8
same,increase in Col2a1,[3]; [5],88 fold
same,increase in collagen,"[3]; 100 millimolar Lac, 14 days, micromass pellets",11 fold
same,increase in relative expression of Col2a1,[3]; [6],1600 fold
same,increase in Col2a1 compared to controls,"[3]; high passage osteoarthritic chondrocytes, TGF-B, 14 days, 28 mM Lac",30 fold
same,relative expression of Col2a1,"[3]; low passage osteoarthritic chondrocytes, day 28",elevated Col2a1 relative expression
same,relative expression of Col2a1 versus medium controls,[3]; [7],49.88+4.31 fold
same,RUNX2 expression,RUNX2; [8],temporal decrease in RUNX2; also recorded: temporally reduced RUNX2 expression
same,relative expression of RUNX2 versus medium controls,RUNX2; [7],−2.51+1.33
same,relative expression of ELN,Elastin (ELN),0.86+3
same,ratio of SOX9/RUNX2,SOX9 versus RUNX2; [8],temporally increased
same,expression of SOX9 compared to RUNX2,SOX9 versus RUNX2; [7],25.14+12.71
same,relative expression of ACAN,Aggrecan (ACAN),3.81+0.77 fold
same,inhibition of PGE2 release,"[4]; 100 millimolar Lac, 0.5 ng/mL IL-1β, 48 h",complete inhibition
same,"concentration with statistically significant effect, PGE2 release","[4]; IL-1β, 48 h",≥ 10 millimolar
same,inhibition of PGE2 release,"[4]; pre-incubation 24 hours, 24-hour harvest, 25 uM Dec, 28 mM Lac, 10 uM LA, singlet",−139%
same,inhibition of PGE2 release,"[4]; rescue (added after overnight IL-1β activation), 24-hour harvest, 25 uM Dec, 28 mM Lac, 10 uM LA, singlet",64%
same,inhibition of PGE2 release,"[4]; rescue, 96-hour harvest, 25 uM Dec, 28 mM Lac, 10 uM LA, singlet",27%
same,increase in SOX9,SOX9; [5],9 fold
same,increase in relative expression of SOX9,SOX9; [6],8 fold
same,increase in SOX9 transcription,"SOX9; high passage osteoarthritic chondrocytes, TGF-B, 14 days, 100 mm LA, 28 mM Lac",2 fold
same,SOX9 expression,"SOX9; high passage, dedifferentiated osteoarthritic chondrocytes, TGF-β3, 14 days",increased SOX9 transcription; also recorded: increased expression of SOX9
same,SOX9 expression,SOX9; [8],temporal increase in SOX9
same,relative expression of SOX9 versus medium controls,"SOX9; passage 5 human osteoarthritic chondrocytes, 27 days, 50 micromolar Dec, 0.1 micromolar Dxp, 100 millimolar Lac",6.34+2.46 fold
same,relative expression of Col1a1 versus medium controls,type I collagen (Col1a1),1.63+0.20 fold
